The results in this text go back to US4444758A, “Nonapeptide for treating addictive drug withdrawal conditions” (priority 1981, dated 1984).

In data set [1] the test system is morphine-dependent mouse. In words: Inhibition of the naloxone-triggered withdrawal leaps of the morphine-dependent mouse. Format: in vivo. Particulars: 30 mg . kg^-1 s.c., positive control. How it is done: In order to produce the dependence a compressed tablet, which contained 75 mg of morphine (base) and which progressively dissolved with continuous liberation of the morphine, was implanted under the dorsal skin of male mice (weight about 22 g). On the third day after the implantation the morphine antagonist naloxone in a dosage of 0.1 mg/kg was administered subcutaneously to the animals in order to trigger off the withdrawal leaps.
After the injection, the leaps of each individual animal were counted for 20 minutes. The group median value was calculated from the total leaps of 8 animals, which formed a group. As the positive control the animals of one group received 30 mg/kg of morphine subcutaneously 30 minutes before administration of the antagonist. Two to four groups received 10 ml/kg of physiological sodium chloride solution (negative control) 2 hours before the naloxone administration intravenously. The remaining groups received DSIP in various dosages (0.01, 0.015, 0.03, 0.06 and 0.1 mg/kg, intravenously and 0.03, 0.1 and 0.3 mg/kg, subcutaneously) 2 hours before the naloxone administration. The dosage median values and, respectively, control median values were calculated from all individual values per dosage and, respectively, the positive and negative controls.

For data set [2], the system named is rats. Particulars: rat, in vivo.
Procedure: (§1) Toxicological studies were carried out on 12 male and 12 female rats as well as on 3 male and 3 female dogs per dosage. For this purpose DSIP was dissolved in physiological sodium chloride solution and administered intravenously daily for 4 weeks in the dosages of 0.6, 1.8 and 6 mg/kg. At an interval of 2 weeks during these studies the hematological, hematochemical and the urine status were determined, and the electrocardiogram was recorded and analyzed
(§2) At the termination of the aforementioned studies all animals were painlessly killed and there followed the autopsy besides the removal of organ samples for histological investigations.
The test system of data set [3] is dogs. Kind of data set: 4-week intravenous toxicological study in dogs.
Procedure: as §1, §2
Data set [4] deals with rats. Kind of data set: 4-week intravenous toxicological study in rats.
Procedure: as §1, §2
Data set [5] deals with dogs. Particulars: dog, in vivo.
Procedure: as §1, §2
The test system of data set [6] is alcoholic or methadone- or heroin-dependent patients. Particulars: human, in vivo.
Procedure: Of the 25 alcoholic patients 8 were on admission already in delirium tremens to a medium to severe degrees. After the first subjective and objective withdrawal signs manifested themselves the patients received up to 4 intravenous infusions of in each case 0.0214 mg/kg of DSIP daily. For this purpose, the substance was dissolved in physiological sodium chloride solution and infused in the course of 5 minutes.
The duration of treatment amounted to a maximum of 3 days.
[7] abbreviates: maximum dosage (6 mg/kg i.v. daily for 4 weeks).

Where no end group is shown, it is not given here.

Turning to `CN1CC[C@]23c4c5ccc(O)c4O[C@H]2[C@@H](O)C=C[C@H]3[C@H]1C5` [Morphine, morphine], the “Leaps/animal (median)” value in data set [1] (30 minutes before naloxone 0.1 mg/kg s.c., leaps counted for 20 minutes) was determined as 43 Leaps/animal. For the same compound, the “% of a negative control” value in data set [1] (30 minutes before naloxone) is 27%.
As to “WAGGDASGE [DSIP, Trp--Ala--Gly--Gly--Asp--Ala--Ser--Gly--Glu]”, the “Tolerance of the dosages (side effects)” value in data set [2] and in data set [5] was “tolerated without any side effects” throughout. The “Local tolerance at the injection sites” value in data set [2] (iv) and in data set [5] (iv) was “excellent” in each case. The “Histological analysis of about 30 organs and of the injection sites” value in data set [3] (i.v. daily for 4 weeks) and in data set [4] (i.v. daily for 4 weeks) was “not the slightest evidence of damage to organs” throughout. For the same compound, the “Changes in the electrocardiogram” value in data set [3] (setting [7]) and in data set [4] (setting [7]) was “no changes in the electrocardiogram” throughout. In addition, the “Hematological, hematochemical and urine values” in data set [3] (setting [7]) and in data set [4] (setting [7]) was “within the physiological limits” in each case. In data set [6], the “Tolerance of DSIP: poor, number of patients” value was found to be 2 patients.
